Measurements from PMC2771899, “Augmentation of Reverse Transcription by Integrase through an Interaction with Host Factor, SIP1/Gemin2 Is Critical for HIV-1 Infection” (PLoS ONE, 2009).

Columns and labels:
HIV-1 cDNA synthesis = assay type: cell-based; settings: PMA-stimulated THP-1 cells, 100 µM peptide 16 h before and 6 h during infection; R/U5 and R/gag, 24 h post-infection
[1] = biological target: T1, IN-SIP1 mediated RT activity (Homo sapiens, UniProt O14893); test: In vitro RT assay, inhibition of IN-SIP1 mediated RT activity by peptide; assay type: biochemical, HIV-1
T1 construct: the SIP1 gene was amplified from pTRE-SIP1 (kindly provided by Dr. G. Dreyfuss) by PCR and cloned into BamHI and EcoRI sites of pGEX-6P-2; GST (N, cleaved yes); made in house; host or cells: E. coli BL21 (GST-SIP1), E. coli M15 (His-IN)
T1 sequence (O14893 1-280): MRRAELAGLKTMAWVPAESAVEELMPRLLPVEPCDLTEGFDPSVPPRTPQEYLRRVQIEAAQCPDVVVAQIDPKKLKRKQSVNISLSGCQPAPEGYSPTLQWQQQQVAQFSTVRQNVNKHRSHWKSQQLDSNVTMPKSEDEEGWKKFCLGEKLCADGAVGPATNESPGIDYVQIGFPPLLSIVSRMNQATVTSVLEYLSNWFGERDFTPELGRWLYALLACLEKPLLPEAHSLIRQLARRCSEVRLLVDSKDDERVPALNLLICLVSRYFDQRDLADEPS

[2] = test system: IN-SIP1 interaction (His-IN, rSIP1); test: Dot-blot inhibition of IN-SIP1 interaction by peptide; assay type: binding, HIV-1
[3] = test system: viral entry and RT enzymatic activity; test: Direct effect on viral entry and RT enzymatic activity; design: species or system HIV-1; settings: data not shown
[4] = test system: HIVNL43-luc/VSV-G pseudotypes; assay type: cell-based, HIV-1
MLV cDNA synthesis = assay type: cell-based, Moloney murine leukemia virus; settings: PMA-stimulated THP-1 cells, 100 µM peptide, MMLV vector pFB-Luc; R/U5 24 h post-infection; compared with DMSO or control peptide
rSIP1 = test: Dot-blot binding of peptide to SIP1; settings: 40 or 400 nmol peptide on nitrocellulose, rSIP1 (5 µg), anti-SIP1 antibody

“IN60–80: synthetic peptide corresponding to the residues of 60–80 of HIV-1 IN (IWQLDCTHLEGKVILVAVHVA; Integrase; UniProt P04585 1207-1227, looked up, fragment)” was tested, and the “Viral cDNA synthesis, % of control” value (HIV-1 cDNA synthesis) was “less than 25 % of control”, the “IC50, inhibition of IN-SIP1 mediated RT activity” value ([1]; 35 fmol RT, 3.5 fmol His-IN, 50 fmol rSIP1, 42°C, 30 min, 20 µl, real-time PCR) was ~10 pmoles per reaction and the “Effect on IN-SIP1 mediated RT activity” value ([1]; 35 fmol RT, 3.5 fmol His-IN, 50 fmol rSIP1, cDNA relative to control) was “significantly reduced the IN-SIP1 mediated RT activity in a dose-dependent manner”. The “Inhibitory effect on IN-SIP1 mediated RT activity relative to IN231–251” value ([1]; IN60–80 versus IN231–251) was “more than 100 times”, the “Effect on IN-mediated RT stimulatory effect and HIV-1 replication” value ([1]; summary statement) was “specifically block IN-mediated RT stimulatory effect and HIV-1 replication” and the “Peptide concentration that reduces His-WT binding to SIP1 to non-specific background levels” value ([2]; His-IN (10 µg) on nitrocellulose, 5 µg rSIP1) was “About 5 µM”. For the same substance, the “Interference with binding of full-length IN (His-WT) to SIP1” value ([2]; His-IN (10 µg) on nitrocellulose, 5 µg rSIP1, peptide present) was “significantly interfered with the binding of the full-length IN (His-WT) to the SIP1 protein”, the “Inhibitory effect on His-WT binding to SIP1 relative to IN231–251” value ([2]; IN60–80 versus IN231–251) was “more than 10 times” and the “Direct effect on viral entry and RT enzymatic activity” value [3] was “does not directly suppress viral entry and RT enzymatic activity”. The “HIV-1 infectivity, % of control” value [4] was 20–25 % of control, the “Effect on MLV cDNA synthesis” value (MLV cDNA synthesis) was “no significant inhibitory effect” and the “Direct binding of peptide to rSIP1” value (rSIP1) was “efficiently bound to rSIP1”.
